According to publication PMC11511194, “Key Factors for Improving Predictive Accuracy and Avoiding Overparameterization of the PBPK Absorption Model in Food Effect Studies of Weakly Basic Water-Insoluble Compounds in Immediate Release Formulations” (Pharmaceutics, 2024):
Like-named read-outs stand apart in the source and are kept apart here. One block for each compound: values may come before it.

Tests used:
[1] = ticagrelor metabolite; supplement ref 14; cited from earlier work
[2] = Additional hepatic/systemic clearance fitted in PBPK model
Excerpt: (§1) S2. PBPK model development and validation physicochemical parameters for these three model drugs, including protein binding and Blood-to-Plasma (B/P) ratio, were obtained from experimental results, while log P and pKa were estimated based on the molecular formula using Gastro Plus ADMET software (version 10.3, […]
(§2) S2.1. Rivaroxaban PBPK model development and validation
S2.1.1. Rivaroxaban PBPK model development for metabolism and elimination module […]
its systemic clearance, CLint_CYP3A4, CLint_CYP2J2 and CLHLM were fitted according to the metabolic fraction of rivaroxaban in vivo and concentration-time profiles from the SAD clinical trial in Caucasian subjects under fasted state. […]
permeability-limited kidney and liver models were employed to account for the active efflux […]
Physicochemical properties

[3] = active metabolite of ticagrelor; supplement ref 17; cited from earlier work
CYP3A4 = CYP3A4 intrinsic clearance fitted in PBPK model; conditions: Fitted to clinical PK profiles
Excerpt: as §1, §2
S2.1.1. Rivaroxaban PBPK model development for metabolism and elimination module Given that the metabolic fractions of CYP3A4 and CYP2J2 to the systemic clearance of rivaroxaban were approximately 18% and 14% [1], respectively, and liver hydrolases contributed to about 14% of its systemic clearance, CLint_CYP3A4, CLint_CYP2J2 and CLHLM were fitted according to the metabolic fraction of rivaroxaban in vivo and concentration-time profiles from the SAD clinical trial in Caucasian subjects under fasted state. Considering that rivaroxaban was a substrate of P-gp transporter, and that about 36% and 7% of the parent drug were directly excreted by the kidney and liver, respectively, rivaroxaban may undergo active efflux through the kidney and liver in vivo [2]. Consequently, permeability-limited kidney and liver models were employed to account for the active efflux mechanism of P-gp for rivaroxaban. These models include both passive diffusion and active transport.
Clearances for passive diffusion in the kidney and liver was calculated using Equation S1 [5] and Equation S2 [6], respectively.
CL௉஽,௜ =2×P௔௣௣ × TSA௜ ሺS1ሻ where CLPD,i is the passive diffusion clearance of the drug in compartment i, Papp is the apparent permeability of the drug, and the TSAi is the regional tubular surface area of compartment i.
Log CL௉஽ =0.82×logD଻.ସ +0.5 ሺS2ሻ where CLPD is the passive diffusional clearance of APIs in the liver, and log D 7.4 is the oil-water partition coefficient at pH 7.4 [6] […]
Blood-to-plasma partition ratio 0.714 Measured
Fraction unbound in plasma 0.065 Measured […]
Caco-2(10-6cm/s) (Rivaroxaban) 8.103 Measured […]

Caco-2 = conditions: Apical pH : Basolateral pH 7.4 : 7.4, Passive&Active, cited from earlier work
Caco-2 permeability = assay type: in vitro ADME; conditions: human, Apical pH : Basolateral pH 7.4 : 7.4, Passive&Active, Table S6 source 'Measured'
Method: Precipitation parameters, such as critical supersaturation ratio (CSC) and precipitation rate constant (PRC), were evaluated when precipitation occurs in the neutral intestinal environment after the mixture of solution and undissolved substance is transferred from the gastric chamber in vitro. These parameters were evaluated by fitting the two-stage dissolution profile according to the crystallization kinetics equations [28, 29, 30]. The absorption module of the PBPK models for rivaroxaban, ticagrelor, and PB-201 was developed using the Advanced Dissolution, Absorption and Metabolism (ADAM) model, which incorporates a mechanistic framework based on drug permeability and the diffusion layer model (DLM). The calibrated permeability of drugs, as determined using the Caco-2 Transwell model, was used to represent the permeability of drugs in vivo [31]. The particle size of the APIs used in the formulation development was incorporated into the Particle Population Balance (PPB) option. The full PBPK model, which includes the predicted steady-state distribution volume (Vss) and tissue-plasma partition coefficient (Kp), was utilized to describe the distribution characteristics of these compounds. The Kp scalar was estimated via sensitive analysis to match observed concentration-time (C-T) profiles. […]

- Additional HLM CLint [2]: 5000 μL/min/mg protein
- Intrinsic clearance of CYP 3A4 (CYP3A4): 6.000 µL/min/pmol
SMILES: CCCSc1nc(N[C@@H]2C[C@H]2c2ccc(F)c(F)c2)c2nnn([C@@H]3C[C@H](O)[C@@H](O)[C@H]3O)c2n1 [AR-C124910XX]
- Fraction unbound in plasma [1]: 0.002
- renal excretion [3]: about 0.04%

SMILES: COCCc1ccc(OCC(O)CNC(C)C)cc1 (centres unmarked) [Metoprolol]
- Caco-2 permeability (Caco-2; supplement ref 19): 15.0 10-6cm/s

SMILES: CN/C(=N/CCSCc1nc[nH]c1C)NC#N [Cimetidine]
- Caco-2 permeability (Caco-2; supplement ref 4): 2.36 10-6cm/s

- Papp (Caco-2 permeability): 294 nm/s
SMILES: CC(C)NCC(O)COc1cccc2ccccc12 (centres unmarked) [Propranolol]
- Caco-2 permeability (Caco-2; supplement ref 4): 31 10-6cm/s
